We go through 3 sequences from patent publication US20150359867A1, “OVARIAN CANCER VACCINES AND VACCINATION METHODS” (IMMUNOCELLULAR THERAPEUTICS, LTD., priority 2013, published 2015).

The subject of this experiment is T2 cells pulsed with CD133 HLA-A2 peptides. As to the kind of experiment: IFN-γ ELISPOT assay of antigen-specific T cell response. The following applies: 1×10^5 CTL co-cultured with 7.5×10^4 T2 cells pulsed with 10 μg/ml of peptides, 20 hours; FIG. 3. It is filed as cell-based, human. On the procedure: To test this hypothesis, effector CD8^+′ T cells were isolated and co-cultured with HLA-A2+ DC pulsed with CD133 peptides to induce antigen-specific CTLs. Antigens-specific T cell responses were evaluated by an IFN-γ ELISPOT assay.
Human monocyte-derived DC was generated using previously described methods. Briefly, monocytes were isolated from PBMC by magnetic immunoselection using EasySep human monocyte enrichment kit (Stem Cell Technologies) in accordance with the manufacturer's instructions and then cultured at […] in 20 ml of GMP CellGenix DC serum-free medium (Cat#20801-0500, Cellgenix) supplemented with 1000 unit/ml of recombinant human GM-CSF (Cat#AF-300-03, Peprotech, Inc) and recombinant human IL-4(Cat#AF-200-04, Peprotech, Inc). Cells were harvested after 3 or 6 days of culture. The DCs were washed and plated in 6-well plates at a concentration of 5×10^6 cells/well IFN-γ (1000 unit/ml) and monophosphoryl lipid A (MPLA, 20-50 μg/ml) was added into the wells to mature the DC for 24 hr or 48 hrs. Prior to some assays, DC was frozen and stored into liquid nitrogen.
In order to evaluate antigen-specific immune responses, CD8^+ T cells were isolated from fresh or frozen apheresis by positive selection using Dynabeads® CD8 Positive Isolation Kit (Life Technologies, Grand Island, N.Y.) and co-cultured with autologous mDC for four weeks. DCs were added weekly. Briefly, mDC was pulsed with synthetic peptides ([…]) for 6-8 hours at 37° C., and then treated with 20 μg/ml Mitomycin C (Sigma-Aldrich, St. Louis, Mo.) for 25 min at 37° C. and 5% CO2. […]
Antigen-specific immune responses were evaluated by the IFN-γ Elispot kit (BD Biosciences) following previously described methods. […] The colored spots, representing cytokine-producing cells, were counted under a dissecting microscope. The results were evaluated by an automated ELISPOT reader system using KS ELISPOT 4.3 software.

As for “ILSAFSVYV (listed as Homo sapiens) [CD133p405, CD133 HLA-A2 peptide, position 405-413]”, the “antigen-specific T cell response: recognition of peptide-pulsed T2 cells by peptide-specific CTLs (IFN-γ ELISPOT)” value (shortened to “antigen-specific T cell response”) is “can efficiently recognize T2 pulsed with these antigens and boost the T cell immune response”.

For the sequence “YLQWIEFSI (listed as Homo sapiens) [CD133p753, CD133 HLA-A2 peptide]”, the “antigen-specific T cell response” value was “can efficiently recognize T2 pulsed with these antigens and boost the T cell immune response”.

In the case of “FLLPALIFAV (listed as Homo sapiens) [CD133p804, CD133 HLA-A2 peptide, position 804-813]”, the “antigen-specific T cell response” value is “can efficiently recognize T2 pulsed with these antigens and boost the T cell immune response”.
